For orientation: IC50 means the concentration that gives 50% inhibition. Higher therefore signals weaker potency.

This note sets out measurements from ChEMBL document CHEMBL3232841, “New aminobenzenesulfonamide-thiourea conjugates: synthesis and carbonic anhydrase inhibition and docking studies” (Eur J Med Chem, 2014).

For this assay, the target named is Carbonic anhydrase 2 (Bos taurus, UniProt P00921). The assay is described as follows: Inhibition of bovine erythrocyte carbonic anhydrase 2 using p-nitrophenyl acetate as substrate preincubated for 10 mins before substrate addition measured after 30 mins by spectrophotometric analysis.
Sequence of Carbonic anhydrase 2 (P00921 whole entry): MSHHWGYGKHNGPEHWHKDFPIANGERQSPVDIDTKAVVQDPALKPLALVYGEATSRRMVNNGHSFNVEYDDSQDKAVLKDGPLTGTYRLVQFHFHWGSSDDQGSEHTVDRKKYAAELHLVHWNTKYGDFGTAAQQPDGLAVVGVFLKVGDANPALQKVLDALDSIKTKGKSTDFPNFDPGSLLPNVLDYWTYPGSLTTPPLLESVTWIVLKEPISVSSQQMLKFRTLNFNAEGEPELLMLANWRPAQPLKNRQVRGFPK

Molecules are shown by their SMILES.

Consider `NS(=O)(=O)c1cccc(NC(=S)NC(=O)c2ccc(Cl)cc2)c1`, for which the IC50 is 5.64 µM.

`NS(=O)(=O)c1cccc(NC(=S)NC(=O)c2ccc(Cl)cc2Cl)c1` displayed a 50% inhibitory concentration (IC50) of 17.1 µM.

Compound `NS(=O)(=O)c1cccc(NC(=S)NC(=O)c2cccs2)c1` had a concentration for half-maximal inhibition (IC50) of 0.052 µM.

`NS(=O)(=O)c1cccc(NC(=S)NC(=O)c2ccco2)c1`: the half-inhibitory concentration (IC50) was determined as 9.76 µM.

`NS(=O)(=O)c1cccc(NC(=S)NC(=O)c2cc3ccccc3oc2=O)c1` returned an IC50 of 13.4 µM.

Consider `CC(C)(C)C(=O)NC(=S)Nc1cccc(S(N)(=O)=O)c1`, for which the concentration for half-maximal inhibition (IC50) worked out at 1.28 µM.

On to `NS(=O)(=O)c1cccc(NC(=S)NC(=O)c2cc([N+](=O)[O-])cc([N+](=O)[O-])c2)c1`, for which the concentration for half-maximal inhibition (IC50) was 14.2 µM.

In turn, `NS(=O)(=O)c1cccc(NC(=S)NC(=O)c2cccc([N+](=O)[O-])c2)c1` gave an IC50 of 0.49 µM.

Compound `NS(=O)(=O)c1ccc(NC(=S)NC(=O)c2cc3ccccc3oc2=O)cc1` came in with an IC50 of 11.3 µM. This IC50 is about 23-fold higher than that of the compound before.

The compound `NS(=O)(=O)c1cccc(NC(=S)NC(=O)c2ccccc2Cl)c1` had an IC50 of 13.5 µM.

`NS(=O)(=O)c1cccc(NC(=S)NC(=O)C23CC4CC(CC(C4)C2)C3)c1` had an IC50 of 5.58 µM.

Regarding `NS(=O)(=O)c1ccc(NC(=S)NC(=O)c2cccs2)cc1`, it took 0.011 µM to reach half-maximal inhibition (IC50).

Compound `NS(=O)(=O)c1cccc(NC(=S)NC(=O)c2cccc(Cl)c2)c1` showed an IC50 of 0.22 µM.
